Data as given in patent EP3454861B1, “BENZOXAZINE OR QUINAZOLINE DERIVATIVES FOR USE IN THE TREATMENT OF ALZHEIMER'S DISEASE” (Biocodex, priority 2016, dated 2017).

Columns and labels:
protéine Tau = assay: Tau hyperphosphorylation in cortical neurons after Aβ1-42; type: cell-based, rats; settings: Rattus norvegicus, Cortical neurone, Aβ1-42 2,5 µM, 16 h (Aβ1-42 alone 183%), read-out: hyperphosphorylation de Tau
Protocol: Des neurones corticaux de rats sont mis en culture comme dans la méthode décrite par Singer (1999) J. Neurosci. 19:2455-2463. Des rats femelles enceintes de 15 jours sont tuées par dislocation des cervicales (Rats Wistar, Janvier) et le fœtus est retiré de l'utérus. Les cortex sont prélevés et placés dans un milieu glacé de Leibovitz (L15, Panbiotech, Réf : P04-27055, lot : 9310614) contenant 2% de pénicilline (10 000 U/ml) et de streptomycine (10 mg/ml) (PS, Panbiotec, Réf : P06-07100, lot : 48101114) et 1% de sérum-albumine bovine (BSA, Panbiotech, Réf : P06-1391100, lot : H140603). Les cortex sont dissociés par trypsination (0,05% Panbiotech, Réf : P10-023100, lot : 5890314) pendant 20 minutes à 37°C. La réaction est stoppée par addition d'un milieu Eagle modifié de Dulbecco (DMEM, Panbiotech, réf P04-03600, lot : 9670913) contenant de la DNase I grade Il (0,1 mg/ml Panbiotech, Réf : P60-37780100, lot : H140508) et 10 % de sérum de veau fœtal (FCS, Invitrogen, Réf : 10270 à 098, lot : 41Q4120K). Les cellules sont dissociées mécaniquement par 3 passages à travers une pipette de 10 ml. Les cellules sont ensuite centrifugées à 515 g pendant 10 minutes à 4°C. Le surnageant est éliminé et les cellules sont remises en suspension dans un milieu de culture Neurobasal (Nb, Invitrogen, Réf : 21103, lot : 1608692) supplémenté avec 2% de B27 (Invitrogen, Réf : 17504, lot : 1589889), 2 mM de L-glutamine (Panbiotech, Réf : P04-80100, lot : 6620314), 2% de la solution PS et 10 ng/ml de facteur neurotrophique dérivé du cerveau (BDNF, PanBiotech, Réf : CB-1115002, lot : 4810114). Les cellules sont ensemencées à une densité de 30 000 cellules/puits dans des plaques de 96 puits pré-enduites de poly-L-lysine (10 ng/ml, Greiner Réf : 655930, lot : E14021HD) et cultivées à 37 °C dans une atmosphère humidifiée avec 95% d'air et 5% de CO2 pour l'évaluation de la survie des neurones (analyse de MAP2 par immuno-coloration) (6 puits/condition, 1 culture).
La préparation du peptide amyloïde β1-42 (Aβ1-42) est réalisée en suivant la procédure par Callizot et al. (2013) Neurosci. Res. 91:706-16. […]

neurones corticaux = assay: Survival of cortical neurons after Aβ1-42 intoxication (MAP-2 immunostaining); type: cell-based, rats; settings: 1 h pre-incubation, Aβ1-42 10 µM, 24 h
Protocol: Des neurones corticaux de rats sont mis en culture comme dans la méthode décrite par Singer (1999) J. Neurosci. 19:2455-2463. Des rats femelles enceintes de 15 jours sont tuées par dislocation des cervicales (Rats Wistar, Janvier) et le fœtus est retiré de l'utérus. Les cortex sont prélevés et placés dans un milieu glacé de Leibovitz (L15, Panbiotech, Réf : P04-27055, lot : 9310614) contenant 2% de pénicilline (10 000 U/ml) et de streptomycine (10 mg/ml) (PS, Panbiotec, Réf : P06-07100, lot : 48101114) et 1% de sérum-albumine bovine (BSA, Panbiotech, Réf : P06-1391100, lot : H140603). Les cortex sont dissociés par trypsination (0,05% Panbiotech, Réf : P10-023100, lot : 5890314) pendant 20 minutes à 37°C. La réaction est stoppée par addition d'un milieu Eagle modifié de Dulbecco (DMEM, Panbiotech, réf P04-03600, lot : 9670913) contenant de la DNase I grade Il (0,1 mg/ml Panbiotech, Réf : P60-37780100, lot : H140508) et 10 % de sérum de veau fœtal (FCS, Invitrogen, Réf : 10270 à 098, lot : 41Q4120K). Les cellules sont dissociées mécaniquement par 3 passages à travers une pipette de 10 ml. Les cellules sont ensuite centrifugées à 515 g pendant 10 minutes à 4°C. […]

In the case of CCNC1=Nc2ccc(Cl)cc2C(C)(c2ccccc2)O1 (centres unmarked) [Etifoxine, chlorhydratede 6-chloro-2-éthylamino-4-méthyl-4-phényl-4H-[3,1]benzoxazine], the activity at 1 µM (protéine Tau; étifoxine 1 µM) is reported as 114%, the activity at 3 µM (protéine Tau; étifoxine 3 µM) is reported as 104% and the activity at 10 µM (protéine Tau; étifoxine 10 µM) is reported as 97.4%. For the same compound, the survie des neurones (neurones corticaux; étifoxine 3 µM, p <0,05) was “restaure de manière significative la survie des neurones” and the survie des neurones (neurones corticaux; étifoxine 10 µM, p <0,01) was “restaure de manière significative la survie des neurones”.
